Measurements taken from paper PMC9268515, “UGT1A1 and UGT1A9 Are Responsible for Phase II Metabolism of Tectorigenin and Irigenin In Vitro” (Molecules, 2022).

Legend:
Assay type in all cases: in vitro ADME
[1] = target: T1, UGT1A6 (Homo sapiens, UniProt P19224); experiment: Recombinant UGT reaction screening, UGT1A6
T1 construct: purchased BD Biosciences (Woburn, MA, USA)
T1 sequence (P19224 27-532): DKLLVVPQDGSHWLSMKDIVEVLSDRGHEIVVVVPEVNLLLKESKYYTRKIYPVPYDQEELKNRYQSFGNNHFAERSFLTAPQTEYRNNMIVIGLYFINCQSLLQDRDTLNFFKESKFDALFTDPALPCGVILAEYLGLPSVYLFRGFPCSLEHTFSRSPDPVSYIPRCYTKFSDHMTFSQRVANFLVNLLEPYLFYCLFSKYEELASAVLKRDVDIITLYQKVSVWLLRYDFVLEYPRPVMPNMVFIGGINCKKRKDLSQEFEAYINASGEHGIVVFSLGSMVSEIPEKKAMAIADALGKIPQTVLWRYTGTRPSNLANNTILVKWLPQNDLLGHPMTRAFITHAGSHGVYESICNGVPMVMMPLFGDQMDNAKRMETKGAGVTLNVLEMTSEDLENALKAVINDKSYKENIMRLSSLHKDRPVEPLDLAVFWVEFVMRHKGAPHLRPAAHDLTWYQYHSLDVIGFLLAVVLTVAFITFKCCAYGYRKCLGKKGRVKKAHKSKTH
Procedure: (§1) UGT reaction screening of tectorigenin and irigenin was conducted using nine commercially available human UGTs (UGT1A1/1A3/1A4/1A6/1A9/2B4/2B7/2B15/2B17). Furthermore, we studied the enzymatic kinetic characteristics of tectorigenin and irigenin using UGT1A1 and UGT1A9. Six concentrations of tectorigenin and irigenin (1, 3, 10, 30, 100, and 300 μM) were incubated in triplicate in order to obtain the enzyme kinetic characteristics of tectorigenin and irigenin glucuronide.

[2] = target: T2, UGT1A3 (Homo sapiens, UniProt P35503); experiment: Recombinant UGT reaction screening, UGT1A3
T2 construct: purchased BD Biosciences (Woburn, MA, USA)
T2 sequence (P35503 29-534): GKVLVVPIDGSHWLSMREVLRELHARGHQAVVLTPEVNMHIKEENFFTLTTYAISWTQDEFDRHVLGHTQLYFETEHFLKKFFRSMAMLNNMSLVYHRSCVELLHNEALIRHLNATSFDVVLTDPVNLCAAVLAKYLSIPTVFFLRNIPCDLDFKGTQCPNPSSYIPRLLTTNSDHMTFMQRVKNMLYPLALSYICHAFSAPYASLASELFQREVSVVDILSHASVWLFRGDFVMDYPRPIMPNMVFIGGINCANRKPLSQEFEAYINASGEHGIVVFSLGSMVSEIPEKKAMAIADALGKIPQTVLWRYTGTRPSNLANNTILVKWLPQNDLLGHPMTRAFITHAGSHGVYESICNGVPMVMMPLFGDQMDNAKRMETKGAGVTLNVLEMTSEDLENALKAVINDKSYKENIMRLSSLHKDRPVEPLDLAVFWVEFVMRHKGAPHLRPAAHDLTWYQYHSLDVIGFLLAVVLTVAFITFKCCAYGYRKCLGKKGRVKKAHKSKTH
Procedure: as §1

[3] = target: T3, UGT2B4 (Homo sapiens, UniProt P06133); experiment: Recombinant UGT reaction screening, UGT2B4
T3 construct: purchased BD Biosciences (Woburn, MA, USA)
T3 sequence (P06133 24-528): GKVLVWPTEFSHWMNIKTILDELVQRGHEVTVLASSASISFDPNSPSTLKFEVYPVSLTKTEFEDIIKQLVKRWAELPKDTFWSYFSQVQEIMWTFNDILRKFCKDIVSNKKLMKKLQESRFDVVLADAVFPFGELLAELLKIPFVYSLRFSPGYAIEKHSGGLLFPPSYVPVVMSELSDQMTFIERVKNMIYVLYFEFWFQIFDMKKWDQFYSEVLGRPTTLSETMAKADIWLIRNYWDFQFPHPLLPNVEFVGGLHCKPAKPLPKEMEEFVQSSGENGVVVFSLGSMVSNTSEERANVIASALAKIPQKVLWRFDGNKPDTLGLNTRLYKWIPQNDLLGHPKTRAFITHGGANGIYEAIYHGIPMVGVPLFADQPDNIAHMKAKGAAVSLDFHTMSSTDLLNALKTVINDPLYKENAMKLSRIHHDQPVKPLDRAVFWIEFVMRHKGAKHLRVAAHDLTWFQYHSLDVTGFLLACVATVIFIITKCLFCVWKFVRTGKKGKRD
Procedure: as §1

[4] = target: T4, UGT1A1 (Homo sapiens, UniProt P22309); experiment: Recombinant UGT reaction screening and enzyme kinetics, UGT1A1; details: recombinant UGT1A1 screening
T4 construct: purchased BD Biosciences (Woburn, MA, USA)
T4 sequence (P22309 26-533): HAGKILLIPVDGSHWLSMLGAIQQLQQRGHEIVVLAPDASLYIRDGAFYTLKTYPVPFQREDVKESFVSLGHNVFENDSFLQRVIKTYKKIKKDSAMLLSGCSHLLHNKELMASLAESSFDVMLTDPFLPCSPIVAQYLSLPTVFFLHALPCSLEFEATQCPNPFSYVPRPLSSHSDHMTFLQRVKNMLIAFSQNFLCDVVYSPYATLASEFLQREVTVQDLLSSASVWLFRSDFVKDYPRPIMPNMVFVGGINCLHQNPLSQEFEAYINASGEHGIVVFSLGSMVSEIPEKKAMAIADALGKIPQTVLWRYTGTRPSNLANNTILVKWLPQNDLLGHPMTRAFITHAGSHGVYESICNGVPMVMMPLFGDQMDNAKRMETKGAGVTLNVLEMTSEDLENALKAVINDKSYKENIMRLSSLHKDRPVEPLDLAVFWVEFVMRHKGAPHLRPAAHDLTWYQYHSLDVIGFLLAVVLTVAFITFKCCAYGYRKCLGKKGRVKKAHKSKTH
Procedure: as §1
For both HLMs and UGTs, metabolic kinetic analysis was performed by fitting the data to the Michaelis-Menten model. The Km and Vmax of enzymes were calculated as follows:(3) V=Vmax×[S]/Km+[S], where [S] is the substrate concentration. All results were shown as the mean ± standard error (SE). Differences among different groups were compared using one-way analysis of variance. A p-value < 0.05 was considered statistically significant.

[5] = target: T5, UGT2B15 (Homo sapiens, UniProt P54855); experiment: Recombinant UGT reaction screening, UGT2B15
T5 construct: purchased BD Biosciences (Woburn, MA, USA)
T5 sequence (P54855 24-530): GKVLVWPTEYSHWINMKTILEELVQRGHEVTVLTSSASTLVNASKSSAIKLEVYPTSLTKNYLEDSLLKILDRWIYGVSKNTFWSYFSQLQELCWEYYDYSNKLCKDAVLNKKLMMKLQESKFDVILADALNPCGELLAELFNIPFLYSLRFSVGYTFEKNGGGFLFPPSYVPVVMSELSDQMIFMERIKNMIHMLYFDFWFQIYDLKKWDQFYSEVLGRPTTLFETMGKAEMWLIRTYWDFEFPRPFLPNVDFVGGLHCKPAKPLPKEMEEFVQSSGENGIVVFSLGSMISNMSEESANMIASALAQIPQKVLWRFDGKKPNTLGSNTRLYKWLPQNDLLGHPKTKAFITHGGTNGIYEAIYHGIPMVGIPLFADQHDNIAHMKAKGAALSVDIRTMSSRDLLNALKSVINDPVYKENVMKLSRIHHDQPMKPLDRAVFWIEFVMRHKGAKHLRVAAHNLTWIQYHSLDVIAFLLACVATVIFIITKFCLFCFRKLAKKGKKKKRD
Procedure: as §1

## COc1c(O)cc2occ(-c3ccc(O)cc3)c(=O)c2c1O [Tectorigenin, 5,7,4′-trihydroxyl-6-methoxyl isoflavone]
[1]
  Activity in glucuronidation of tectorigenin: some activity
[2]
  Activity in glucuronidation of tectorigenin: some activity
[3]
  Activity in glucuronidation of tectorigenin: none
[4]
  Activity in glucuronidation of tectorigenin: highest activity
[5]
  Activity in glucuronidation of tectorigenin: none
